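Assay format: 96-well plates, 48-hour exposure. TGI marks complete inhibition of growth.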

Some test systems named below: COLO 205 colon; UACC-62 melanoma; UO-31 renal; OVCAR-4 ovarian; MDA-N; OVCAR-8 ovarian; UACC-257 melanoma; NCI-H23 lung; CAKI-1 renal; BT-549 breast; EKVX NSCLC; HOP-62 NSCLC.
Assay in all cases: inhibition of tumour cell growth, NCI panel, 48 h

On to `CSc1ccc(Nc2cc(=O)[nH]c(=O)[nH]2)cc1`, for which the TGI in the assay with COLO 205 colon, in the assay with UACC-62 melanoma, in the assay with UO-31 renal, with OVCAR-4 ovarian, with MDA-N and in the assay on OVCAR-8 ovarian was over 100 µM throughout. Further, the TGI with UACC-257 melanoma, with NCI-H23 lung, with CAKI-1 renal and with BT-549 breast was over 100 µM each time.

On to `COC(=O)/C=C1/OC(c2ccccc2)=C(C)C1=O`, for which the TGI in the assay with COLO 205 colon amounted to 31.3 µM; in the assay with UACC-62 melanoma, 11.5 µM; in the assay on UO-31 renal, 26.7 µM; in the assay with EKVX NSCLC, 32 µM; in the assay with MDA-N, 5.71 µM; in the assay with OVCAR-8 ovarian, 81.6 µM. In addition, the TGI amounted to 43.6 µM in the assay with NCI-H23 lung, 14.8 µM in the assay on CAKI-1 renal, 8.45 µM with BT-549 breast and 31.4 µM with HOP-62 NSCLC.

Consider `CCOC(=O)c1c(NC(=S)Nc2ccc(Cl)cc2)sc2c1CCN(C)C2`, for which the TGI in the assay with COLO 205 colon, in the assay with UACC-62 melanoma, in the assay on UO-31 renal, in the assay on EKVX NSCLC, in the assay with MDA-N and with OVCAR-8 ovarian was over 100 µM each time. Moreover, the TGI in the assay on UACC-257 melanoma, with NCI-H23 lung, in the assay on CAKI-1 renal, in the assay with BT-549 breast and in the assay on HOP-62 NSCLC was over 100 µM each time.

In the case of `COC(=O)CCNC(=O)OCc1ccccc1`, the TGI in the assay on COLO 205 colon, in the assay with UACC-62 melanoma, in the assay on UO-31 renal, with EKVX NSCLC, in the assay with MDA-N and with OVCAR-8 ovarian was over 100 µM throughout. The TGI with UACC-257 melanoma, in the assay on NCI-H23 lung, with CAKI-1 renal, with BT-549 breast and in the assay on HOP-62 NSCLC was over 100 µM throughout.

Take `CCOP(=O)(OCC)C(NC(=O)C(C(F)(F)F)C(F)(F)F)c1ccccc1` (stereo not drawn): the TGI in the assay with COLO 205 colon, in the assay on UACC-62 melanoma, in the assay with UO-31 renal, with OVCAR-4 ovarian, with EKVX NSCLC and in the assay with MDA-N was over 100 µM in each case. The TGI in the assay on OVCAR-8 ovarian, with UACC-257 melanoma, with NCI-H23 lung, in the assay with CAKI-1 renal and with HOP-62 NSCLC was over 100 µM throughout.

For the compound `COc1ccccc1C(O)[C@@H]1C[C@@H]2[C@H]3CC[C@@](C)([C@@H]2O1)C3(C)C` (stereo partly drawn), the TGI in the assay on COLO 205 colon is 35.2 µM; with UACC-62 melanoma it was 32.8 µM; in the assay with UO-31 renal, 32.4 µM; in the assay on EKVX NSCLC, over 100 µM; with MDA-N it was 32 µM; in the assay on OVCAR-8 ovarian, 38.9 µM. The TGI stood at 39 µM in the assay with UACC-257 melanoma; 50.5 µM in the assay on NCI-H23 lung; 56.4 µM with CAKI-1 renal; 42.2 µM in the assay with BT-549 breast; 35.1 µM in the assay on HOP-62 NSCLC.

On to `COc1cccc(C2SC(N)=Nc3c2c(C)nn3C(=O)Cc2ccccc2)c1` (stereo not drawn), for which the TGI with COLO 205 colon, in the assay with UACC-62 melanoma, with UO-31 renal, in the assay on EKVX NSCLC, in the assay with MDA-N and in the assay on OVCAR-8 ovarian was over 100 µM each time. Further, the TGI in the assay on UACC-257 melanoma, in the assay on NCI-H23 lung, with CAKI-1 renal, with BT-549 breast and in the assay with HOP-62 NSCLC was over 100 µM in each case.

For `[B-][P+](CC[P+]1([B-])[C@@H](C)[C@@H](O)[C@H](O)[C@@H]1C)(c1ccccc1)c1ccccc1OC` (stereo partly drawn), the TGI amounted to 32.6 µM with COLO 205 colon; 28.1 µM in the assay with UACC-62 melanoma; 21.7 µM in the assay on UO-31 renal; 31.7 µM in the assay on OVCAR-4 ovarian; 25 µM in the assay on EKVX NSCLC; 29.6 µM with MDA-N. The TGI with OVCAR-8 ovarian came out at 31.5 µM; in the assay with UACC-257 melanoma, 20.3 µM; in the assay on NCI-H23 lung it was 31.3 µM; with CAKI-1 renal it was 30.4 µM; in the assay on HOP-62 NSCLC it was 33.6 µM.

`COc1cccc(C2c3cc4c(cc3OC(NNS(=O)(=O)c3ccc(C)cc3)C2C)OCO4)c1OC` (stereo not drawn): the TGI with COLO 205 colon was 3.79 µM; in the assay with UACC-62 melanoma it was 33.2 µM; in the assay with UO-31 renal, 52.8 µM; in the assay with EKVX NSCLC, over 100 µM; in the assay with MDA-N it was over 100 µM; with OVCAR-8 ovarian, over 100 µM. Further, the TGI in the assay on UACC-257 melanoma was over 100 µM; in the assay with NCI-H23 lung it was over 100 µM; with CAKI-1 renal it was 8.56 µM; in the assay with BT-549 breast, 36 µM; in the assay on HOP-62 NSCLC, 9.06 µM.

For `COc1ccc2c(c1)/C(=C\c1c(Cl)[nH]c3ccccc13)C(=O)N2`, the TGI in the assay with COLO 205 colon came out at 6.6 µM; in the assay with UACC-62 melanoma it was 20 µM; in the assay on UO-31 renal, 20.2 µM; in the assay on EKVX NSCLC it was 18.5 µM; in the assay on MDA-N, 3.83 µM; in the assay on OVCAR-8 ovarian it was 23.8 µM. Moreover, the TGI in the assay on UACC-257 melanoma was found to be 20.4 µM; in the assay with NCI-H23 lung it was 25 µM; in the assay with CAKI-1 renal it was 27.1 µM; in the assay on BT-549 breast, 14.8 µM; in the assay on HOP-62 NSCLC, 17.9 µM.

Source of the values: PubChem BioAssay (NCI).
